Assay type in all cases: functional
The test system of test [1] is Mus musculus. Put plainly: Compound was tested for its significant suppressive activity of delayed type hypersensitivity (DTH) with out inhibition of humoral immunity in mice by oral administration at dose of 12.5 mg/kg.
Test [2] relates to Mus musculus. The test can be described thus: Compound was tested for its significant suppressive activity of delayed type hypersensitivity (DTH) with out inhibition of humoral immunity in mice by oral administration at dose of 100 mg/kg.
For test [3], the system named is Mus musculus. The test can be described thus: Compound was tested for its significant suppressive activity of delayed type hypersensitivity (DTH) with out inhibition of humoral immunity in mice by oral administration at dose of 200 mg/kg.
Test [4] relates to Mus musculus. The test can be described thus: Compound was tested for its significant suppressive activity of delayed type hypersensitivity (DTH) with out inhibition of humoral immunity in mice by oral administration at dose of 25 mg/kg.
Test [5] relates to Mus musculus. The test can be described thus: Significant suppressive activity of delayed type hypersensitivity (DTH) with out inhibition of humoral immunity in mice by oral administration at dose of 50 mg/kg.
The test system of test [6] is Mus musculus. Put plainly: Effect on the plaque forming cell formation in BDF1 mice after peroral administration at dose of 30 mg/kg. The following applies: route oral.
Test [7] has as its system Mus musculus. Put plainly: Significant suppressive activity of delayed type hypersensitivity (DTH) with out inhibition of humoral immunity in mice by oral administration at dose of 400 mg/kg.
The test system of test [8] is Mus musculus. The test can be described thus: Effect on the plaque forming cell formation in BDF1 mice after peroral administration at dose of 300 mg/kg. The conditions noted are these: route oral.
The test system of test [9] is Mus musculus. The test can be described thus: Effect on the plaque forming cell formation in BDF1 mice after peroral administration at dose of 100 mg/kg. The following applies: route oral.
In test [10] the test system is Mus musculus. Put plainly: Effect on the plaque forming cell formation in BDF1 mice after peroral administration at dose of 10 mg/kg. The conditions noted are these: route oral.
The test system of test [11] is Mus musculus. The test can be described thus: The compound was tested for its significant suppressive activity of delayed type hypersensitivity (DTH) with out inhibition of humoral immunity in mice by oral administration at dose of 400 mg/kg.

“And” between values parts separate entries of the source, which are not always exact repeats. Equal values may be shown once.

As a reminder, the inhibition in vivo is the change of the read-out against control, counted positive when it falls. Take `CN(C)c1cccc(-c2cn3c(n2)sc2ccccc23)c1`: in the test with Mus musculus [1], the “Increase in ear thickness” value is recorded as 3.4 1/100mm and the inhibition in vivo at 12.5 mg/kg stood at 17%. In the test with Mus musculus [2], the “Increase in ear thickness” value is reported as 3.2 1/100mm and the inhibition in vivo at 100 mg/kg came to 21%.
On to `CC(=O)Nc1ccc(-c2cn3c(n2)sc2ccccc23)cc1`, for which the “Increase in ear thickness” value in the test on Mus musculus [3] is recorded as 3 1/100mm; in the test with Mus musculus [5], 3.6 1/100mm. Moreover, the inhibition in vivo at 200 mg/kg in the test on Mus musculus [3] was 9.1%. Besides, in the test on Mus musculus [4], the inhibition in vivo at 25 mg/kg was -9.1%.
On to `Oc1ccc(-c2cn3c(n2)sc2ccccc23)cc1O`, for which, in the test on Mus musculus [3], the “Increase in ear thickness” value is listed as 3.1 1/100mm and the inhibition in vivo at 200 mg/kg came to 3.1%. Moreover, in the test with Mus musculus [4], the “Increase in ear thickness” value is reported as 2.5 1/100mm and the inhibition in vivo at 25 mg/kg stood at 21.9%.
As for `Oc1cccc(-c2cn3c(n2)sc2ccccc23)c1`, the “Increase in ear thickness” value in the test on Mus musculus [3] was 2.8 1/100mm; in the test with Mus musculus [7] (400 mg/kg), 0.9 1/100mm and 1.3 1/100mm; in the test on Mus musculus [4] it was 5.3 1/100mm; in the test on Mus musculus [2], 2.4 1/100mm; in the test on Mus musculus [5] (50 mg/kg), 3.4 1/100mm and 3.9 1/100mm. In the test on Mus musculus [3], the inhibition in vivo at 200 mg/kg was determined as 54.8%. The PFC/splleen in the test with Mus musculus [6] is on record as 0.138; in the test on Mus musculus [8], 0.182; in the test on Mus musculus [9], 0.198; with Mus musculus [10], 0.177. Moreover, the inhibition in vivo at 400 mg/kg with Mus musculus [7] is 79%. Further, the inhibition in vivo at 100 mg/kg in the test with Mus musculus [2] was found to be 61.3%. Moreover, the inhibition in vivo at 50 mg/kg with Mus musculus [5] was found to be 37.1%.
Consider `Cc1ccc(-c2cn3c(n2)sc2ccccc23)cc1`, for which, in the test with Mus musculus [11], the “Increase in ear thickness” value is listed as 5.3 1/100mm and the inhibition in vivo at 400 mg/kg was -1.9%. In the test on Mus musculus [5], the “Increase in ear thickness” value is on record as 5.8 1/100mm and the inhibition in vivo at 50 mg/kg is -11.5%.
As for `O=CNc1cccc(-c2cn3c(n2)sc2ccccc23)c1`, in the test on Mus musculus [3], the “Increase in ear thickness” value is 2.2 1/100mm and the inhibition in vivo at 200 mg/kg was determined as 48.8%. Besides, in the test with Mus musculus [4], the “Increase in ear thickness” value is given as 2.6 1/100mm and the inhibition in vivo at 25 mg/kg was determined as 39.5%.

These data come from ChEMBL document CHEMBL1123416, “Imidazo[2,1-b]benzothiazoles. 2. New immunosuppressive agents” (1986).
